Tests used:
PA-1 = assay: cells; type: functional, cell-based, Homo sapiens; settings: Homo sapiens, PA-1;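 also: IC50 for suppression of PA-1 cell proliferation, determined with a cell viability read-out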
Description: SANGER: Inhibition of human PA-1 cell growth in a cell viability assay.

NCI-H1993 = assay: cells; type: functional, cell-based, Homo sapiens; settings: Homo sapiens, NCI-H1993;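 also: growth inhibition of the cancer cell line, assessed with a cell viability assay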
Description: SANGER: Inhibition of human NCI-H1993 cell growth in a cell viability assay.

UMC-11 = assay: cells; type: functional, cell-based, Homo sapiens; settings: Homo sapiens, UMC-11;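 also: growth inhibition of UMC-11 cells, read out with a cell viability assay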
Description: SANGER: Inhibition of human UMC-11 cell growth in a cell viability assay.

NCI-H1963 = assay: cells; type: functional, cell-based, Homo sapiens; settings: Homo sapiens, NCI-H1963;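 also: cell growth inhibition of the human line, determined with a cell viability assay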
Description: SANGER: Inhibition of human NCI-H1963 cell growth in a cell viability assay.

FTC-133 = assay: cells; type: functional, cell-based, Homo sapiens; settings: Homo sapiens, FTC-133
CAL-51 = assay: cells; type: functional, cell-based, Homo sapiens; settings: Homo sapiens, CAL-51;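 also: human CAL-51 cell line, growth inhibition read out via a cell viability assay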
Description: SANGER: Inhibition of human CAL-51 cell growth in a cell viability assay.

MG-63 = assay: cells; type: functional, cell-based, Homo sapiens; settings: Homo sapiens, MG-63;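 also: growth inhibition of human MG-63 cells, read out with a cell viability assay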
Description: SANGER: Inhibition of human MG-63 cell growth in a cell viability assay.

HCT-15 = assay: cells; type: functional, cell-based, Homo sapiens; settings: Homo sapiens, HCT-15;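 also: cell viability readout, IC50 reflecting suppression of HCT-15 cell growth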
Description: SANGER: Inhibition of human HCT-15 cell growth in a cell viability assay.

P31-FUJ = assay: cells; type: functional, cell-based, Homo sapiens; settings: Homo sapiens, P31-FUJ;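 also: growth inhibition of P31-FUJ cells, read out with a viability assay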
Description: SANGER: Inhibition of human P31-FUJ cell growth in a cell viability assay.

HCC1806 = assay: cells; type: functional, cell-based, Homo sapiens; settings: Homo sapiens, HCC1806;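 also: growth inhibition of the cancer cell line, determined with a cell viability assay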
Description: SANGER: Inhibition of human HCC1806 cell growth in a cell viability assay.

BHT-101 = assay: cells; type: functional, cell-based, Homo sapiens; settings: Homo sapiens, BHT-101
Description: SANGER: Inhibition of human BHT-101 cell growth in a cell viability assay.

SW1710 = assay: cells; type: functional, cell-based, Homo sapiens; settings: Homo sapiens, SW1710;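 also: growth inhibition of SW1710 cells, determined with a cell viability assay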
Description: SANGER: Inhibition of human SW1710 cell growth in a cell viability assay.

SNU-449 = assay: cells; type: functional, cell-based, Homo sapiens; settings: Homo sapiens, SNU-449
Description: SANGER: Inhibition of human SNU-449 cell growth in a cell viability assay.

TE-441-T = assay: cells; type: functional, cell-based, Homo sapiens; settings: Homo sapiens, TE-441-T
Description: SANGER: Inhibition of human TE-441-T cell growth in a cell viability assay.

IMR-5 = assay: cells; type: functional, cell-based, Homo sapiens; settings: Homo sapiens, IMR-5;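 also: growth inhibition of human IMR-5 cells, read out with a cell viability assay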
Description: SANGER: Inhibition of human IMR-5 cell growth in a cell viability assay.

AN3-CA = assay: cells; type: functional, cell-based, Homo sapiens; settings: Homo sapiens, AN3-CA;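 also: growth inhibition of human AN3-CA cells measured by a cell viability assay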
Description: SANGER: Inhibition of human AN3-CA cell growth in a cell viability assay.

CPC-N = assay: cells; type: functional, cell-based, Homo sapiens; settings: Homo sapiens, CPC-N;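 also: growth inhibition of CPC-N cells, with a cell viability assay as the readout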
Description: SANGER: Inhibition of human CPC-N cell growth in a cell viability assay.

ESS-1 = assay: cells; type: functional, cell-based, Homo sapiens; settings: Homo sapiens, ESS-1;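 also: growth inhibition of human ESS-1 cells, read out by a cell viability assay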
Description: SANGER: Inhibition of human ESS-1 cell growth in a cell viability assay.

SAOS-2 = assay: cells; type: functional, cell-based, Homo sapiens; settings: Homo sapiens, SAOS-2;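 also: growth inhibition of human Saos-2 cells determined by a cell viability assay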
Description: SANGER: Inhibition of human Saos-2 cell growth in a cell viability assay.

SK-MES-1 = assay: cells; type: functional, cell-based, Homo sapiens; settings: Homo sapiens, SK-MES-1;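 also: growth inhibition of human SK-MES-1 cells, read out with a cell viability assay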
Description: SANGER: Inhibition of human SK-MES-1 cell growth in a cell viability assay.

HT-1376 = assay: cells; type: functional, cell-based, Homo sapiens; settings: Homo sapiens, HT-1376
Description: SANGER: Inhibition of human HT-1376 cell growth in a cell viability assay.

Daudi = assay: cells; type: functional, cell-based, Homo sapiens; settings: Homo sapiens, Daudi
Description: SANGER: Inhibition of human Daudi cell growth in a cell viability assay.

CAL-54 = assay: cells; type: functional, cell-based, Homo sapiens; settings: Homo sapiens, CAL-54;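 also: growth inhibition of CAL-54 cells, read out by a viability measurement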
Description: SANGER: Inhibition of human CAL-54 cell growth in a cell viability assay.

YKG-1 = assay: cells; type: functional, cell-based, Homo sapiens; settings: Homo sapiens, YKG-1
Description: SANGER: Inhibition of human YKG-1 cell growth in a cell viability assay.

JEG-3 = assay: cells; type: functional, cell-based, Homo sapiens; settings: Homo sapiens, JEG-3;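 also: growth inhibition of human JEG-3 cells, read out with a cell viability assay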
Description: SANGER: Inhibition of human JEG-3 cell growth in a cell viability assay.

YT = assay: cells; type: functional, cell-based, Homo sapiens; settings: Homo sapiens, YT
Description: SANGER: Inhibition of human YT cell growth in a cell viability assay.

RVH-421 = assay: cells; type: functional, cell-based, Homo sapiens; settings: Homo sapiens, RVH-421
Description: SANGER: Inhibition of human RVH-421 cell growth in a cell viability assay.

RPMI 8402 = assay: SANGER: Inhibition of human RPMI-8402 cell growth in a cell viability assay.; type: functional, cell-based; settings: Homo sapiens, RPMI 8402; read-out: IC50
PFSK-1 = assay: cells; type: functional, cell-based, Homo sapiens; settings: Homo sapiens, PFSK-1;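 also: cell viability assay measuring how strongly compounds suppress growth of human PFSK-1 cells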
Description: SANGER: Inhibition of human PFSK-1 cell growth in a cell viability assay.

SUP-T1 = assay: cells; type: functional, cell-based, Homo sapiens; settings: Homo sapiens, SUP-T1;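 also: growth inhibition of human SUP-T1 cells, read out as cell viability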
Description: SANGER: Inhibition of human SUP-T1 cell growth in a cell viability assay.

BFTC-905 = assay: cells; type: functional, cell-based, Homo sapiens; settings: Homo sapiens, BFTC-905
Description: SANGER: Inhibition of human BFTC-905 cell growth in a cell viability assay.

NCI-H2227 = assay: cells; type: functional, cell-based, Homo sapiens; settings: Homo sapiens, NCI-H2227
Description: SANGER: Inhibition of human NCI-H2227 cell growth in a cell viability assay.

NCI-H2122 = assay: cells; type: functional, cell-based, Homo sapiens; settings: Homo sapiens, NCI-H2122
Description: SANGER: Inhibition of human NCI-H2122 cell growth in a cell viability assay.

EB2 = assay: cells; type: functional, cell-based, Homo sapiens; settings: Homo sapiens, EB2;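 also: growth inhibition of EB2 cells, read out with a cell viability assay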
Description: SANGER: Inhibition of human EB2 cell growth in a cell viability assay.

SW1463 = assay: cells; type: functional, cell-based, Homo sapiens; settings: Homo sapiens, SW1463;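 also: growth inhibition of SW1463 cells, determined with a cell viability assay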
Description: SANGER: Inhibition of human SW1463 cell growth in a cell viability assay.

ECC4 = assay: cells; type: functional, cell-based, Homo sapiens; settings: Homo sapiens, ECC4;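 also: growth inhibition of ECC4 cells, read out with a cell viability assay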
Description: SANGER: Inhibition of human ECC4 cell growth in a cell viability assay.

NCI-H1694 = assay: cells; type: functional, cell-based, Homo sapiens; settings: Homo sapiens, NCI-H1694;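 also: cell viability assay measuring inhibition of growth in human NCI-H1694 cells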
Description: SANGER: Inhibition of human NCI-H1694 cell growth in a cell viability assay.

KYSE-150 cell line = assay: cells; type: functional, cell-based, Homo sapiens; settings: Homo sapiens, KYSE-150;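 also: growth inhibition of human KYSE-150 cells, read out with a cell viability assay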
Description: SANGER: Inhibition of human KYSE-150 cell growth in a cell viability assay.

HT55 = assay: cells; type: functional, cell-based, Homo sapiens; settings: Homo sapiens, HT55;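 also: cell viability readout measuring growth inhibition of human HT55 cells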
Description: SANGER: Inhibition of human HT55 cell growth in a cell viability assay.

HCT-116 = assay: cells; type: functional, cell-based, Homo sapiens; settings: Homo sapiens, HCT-116
Description: SANGER: Inhibition of human HCT-116 cell growth in a cell viability assay.

EHEB = assay: cells; type: functional, cell-based, Homo sapiens; settings: Homo sapiens, EHEB
Description: SANGER: Inhibition of human EHEB cell growth in a cell viability assay.

HOP-92 = assay: cells; type: functional, cell-based, Homo sapiens; settings: Homo sapiens, HOP-92;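 also: cell viability readout, with IC50 reflecting inhibition of HOP-92 cell growth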
Description: SANGER: Inhibition of human HOP-92 cell growth in a cell viability assay.

CP50-MEL-B = assay: cells; type: functional, cell-based, Homo sapiens; settings: Homo sapiens, CP50-MEL-B;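 also: growth inhibition of the human cell line, measured with a cell viability read-out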
Description: SANGER: Inhibition of human CP50-MEL-B cell growth in a cell viability assay.

SF-295 = assay: cells; type: functional, cell-based, Homo sapiens; settings: Homo sapiens, SF-295;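 also: growth inhibition of SF-295 cells, read out with a cell viability assay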
Description: SANGER: Inhibition of human SF295 cell growth in a cell viability assay.

NB7 = assay: cells; type: functional, cell-based, Homo sapiens; settings: Homo sapiens, NB7;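 also: growth inhibition of NB7 cells, read out with a cell viability assay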
Description: SANGER: Inhibition of human NB7 cell growth in a cell viability assay.

KP-N-YN = assay: cells; type: functional, cell-based, Homo sapiens; settings: Homo sapiens, KP-N-YN;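 also: growth inhibition of KP-N-YN cells, read out with a cell viability assay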
Description: SANGER: Inhibition of human KP-N-YN cell growth in a cell viability assay.

Question: Which results are given for `Nc1ccn([C@@H]2O[C@H](CO)[C@@H](O)C2(F)F)c(=O)n1` [GEMCITABINE]?
Answer: IC50 (PA-1): 8.99 nM; IC50 (NCI-H1993): > 1020 nM; IC50 (UMC-11): > 1020 nM; IC50 (NCI-H1963): > 1020 nM; IC50 (FTC-133): 87.5 nM; IC50 (CAL-51): 191 nM; IC50 (MG-63): 1.33 nM; IC50 (HCT-15): 82.2 nM; IC50 (P31-FUJ): > 1020 nM; IC50 (HCC1806): 2.91 nM; IC50 (BHT-101): 210 nM; IC50 (SW1710): < 4 nM; IC50 (SNU-449): 13.8 nM; IC50 (TE-441-T): > 1020 nM; IC50 (IMR-5): 83 nM; IC50 (AN3-CA): 203 nM; IC50 (CPC-N): 329 nM; IC50 (ESS-1): < 4 nM; IC50 (SAOS-2): > 1020 nM; IC50 (SK-MES-1): < 4 nM; IC50 (HT-1376): 369 nM; IC50 (Daudi): 569 nM; IC50 (CAL-54): 298 nM; IC50 (YKG-1): < 4 nM; IC50 (JEG-3): 277 nM; IC50 (YT): > 1020 nM; IC50 (RVH-421): > 1020 nM; IC50 (RPMI 8402): 45.9 nM; IC50 (PFSK-1): > 1020 nM; IC50 (SUP-T1): 23.5 nM; IC50 (BFTC-905): < 4 nM; IC50 (NCI-H2227): > 1020 nM; IC50 (NCI-H2122): < 4 nM; IC50 (EB2): 2.01 nM; IC50 (SW1463): 510 nM; IC50 (ECC4): > 1020 nM; IC50 (NCI-H1694): 61.3 nM; IC50 (KYSE-150 cell line): 8.47 nM; IC50 (HT55): > 1020 nM; IC50 (HCT-116): 50.8 nM; IC50 (EHEB): 227 nM; IC50 (HOP-92): 951 nM; IC50 (CP50-MEL-B): > 1020 nM; IC50 (SF-295): 51.1 nM

Question: Which IC50 (NCI-H1963) does the source give for `C#Cc1cccc(Nc2ncnc3cc(OCCOC)c(OCCOC)cc23)c1` [ERLOTINIB] here?
Answer: > 2000 nM

Question: What about the IC50 (P31-FUJ) of the same compound?
Answer: > 2000 nM

Question: What about the IC50 (TE-441-T) of the same compound?
Answer: > 2000 nM

Question: What about the IC50 (IMR-5) of the same compound?
Answer: > 2000 nM

Question: What about the IC50 (CPC-N) of the same compound?
Answer: > 2000 nM

Question: And the IC50 (Daudi)?
Answer: > 2000 nM

Question: What about the IC50 (YT) of the same compound?
Answer: > 2000 nM

Question: What about the IC50 (NB7) of the same compound?
Answer: > 2000 nM

Question: And the IC50 (SUP-T1)?
Answer: > 2000 nM

Question: What about the IC50 (NCI-H2227) of the same compound?
Answer: > 2000 nM

Question: And the IC50 (EB2)?
Answer: > 2000 nM

Question: And the IC50 (ECC4)?
Answer: > 2000 nM

Question: What about the IC50 (NCI-H1694) of the same compound?
Answer: > 2000 nM

Question: And the IC50 (EHEB)?
Answer: > 2000 nM

Question: How did the IC50 (NCI-H1963) turn out when `COc1cc(-c2nn([C@H]3CC[C@H](N4CCN(C(C)=O)CC4)CC3)c3ncnc(N)c23)ccc1NC(=O)c1cc2ccccc2n1C` was run?
Answer: > 5120 nM

Question: And the IC50 (P31-FUJ)?
Answer: > 5120 nM

Question: And the IC50 (TE-441-T)?
Answer: > 5120 nM

Question: What about the IC50 (IMR-5) of the same compound?
Answer: > 5120 nM

Question: What about the IC50 (CPC-N) of the same compound?
Answer: > 5120 nM

Question: What about the IC50 (Daudi) of the same compound?
Answer: > 5120 nM

Question: What about the IC50 (YT) of the same compound?
Answer: > 5120 nM

Question: And the IC50 (RPMI 8402)?
Answer: > 5120 nM

Question: And the IC50 (NB7)?
Answer: > 5120 nM

Question: And the IC50 (SUP-T1)?
Answer: > 5120 nM

Question: What about the IC50 (EB2) of the same compound?
Answer: > 5120 nM

Question: What about the IC50 (ECC4) of the same compound?
Answer: > 5120 nM

Question: What about the IC50 (NCI-H1694) of the same compound?
Answer: > 5120 nM

Question: What about the IC50 (EHEB) of the same compound?
Answer: > 5120 nM

Question: What does the source list for `CC(=O)O[C@H]1C(=O)[C@@]2(C)[C@H]([C@H](OC(=O)c3ccccc3)[C@]3(O)C[C@H](OC(=O)[C@H](O)[C@@H](NC(=O)c4ccccc4)c4ccccc4)C(C)=C1C3(C)C)[C@]1(OC(C)=O)CO[C@@H]1C[C@@H]2O` [PACLITAXEL]?
Answer: IC50 (NCI-H1963): 31.3 nM; IC50 (P31-FUJ): > 102 nM; IC50 (TE-441-T): > 102 nM; IC50 (IMR-5): 4.5 nM; IC50 (CPC-N): 30.8 nM; IC50 (Daudi): 17.1 nM; IC50 (YT): > 102 nM; IC50 (RPMI 8402): 12.6 nM; IC50 (NB7): > 102 nM; IC50 (SUP-T1): > 102 nM; IC50 (EB2): > 102 nM; IC50 (ECC4): > 102 nM; IC50 (NCI-H1694): > 102 nM; IC50 (EHEB): > 102 nM

Question: How did the IC50 (NCI-H1963) turn out when `CCN(CC)CCNC(=O)c1c(C)[nH]c(/C=C2\C(=O)Nc3ccc(F)cc32)c1C` [SUNITINIB] was run?
Answer: > 8000 nM

Question: And the IC50 (P31-FUJ)?
Answer: > 8000 nM

Question: And the IC50 (TE-441-T)?
Answer: > 8000 nM

Question: What about the IC50 (IMR-5) of the same compound?
Answer: 7550 nM

Question: What about the IC50 (CPC-N) of the same compound?
Answer: > 8000 nM

Question: And the IC50 (Daudi)?
Answer: > 8000 nM

Question: What about the IC50 (YT) of the same compound?
Answer: > 8000 nM

Question: And the IC50 (RPMI 8402)?
Answer: 2340 nM

Question: What about the IC50 (NB7) of the same compound?
Answer: > 8000 nM

Question: And the IC50 (SUP-T1)?
Answer: > 8000 nM

Question: What about the IC50 (EB2) of the same compound?
Answer: > 8000 nM

Question: What about the IC50 (ECC4) of the same compound?
Answer: > 8000 nM

Question: And the IC50 (NCI-H1694)?
Answer: > 8000 nM

Question: And the IC50 (EHEB)?
Answer: > 8000 nM

Question: With `COc1cc(N2CCN(C)CC2)ccc1Nc1ncc2c(n1)N(C)c1ccccc1C(=O)N2C` as the compound, how does the IC50 (NCI-H1963) read?
Answer: > 8000 nM

Question: What about the IC50 (P31-FUJ) of the same compound?
Answer: > 8000 nM

Question: And the IC50 (TE-441-T)?
Answer: > 8000 nM

Question: What about the IC50 (KP-N-YN) of the same compound?
Answer: > 8000 nM

Question: And the IC50 (IMR-5)?
Answer: 6350 nM

Question: What about the IC50 (CPC-N) of the same compound?
Answer: > 8000 nM

Question: What about the IC50 (Daudi) of the same compound?
Answer: > 8000 nM

Question: What about the IC50 (YT) of the same compound?
Answer: 3480 nM

Question: What about the IC50 (RPMI 8402) of the same compound?
Answer: 4500 nM

Question: And the IC50 (NB7)?
Answer: > 8000 nM

Question: What about the IC50 (SUP-T1) of the same compound?
Answer: 2230 nM

Question: What about the IC50 (NCI-H2227) of the same compound?
Answer: > 8000 nM

Question: And the IC50 (EB2)?
Answer: 2820 nM

Question: What about the IC50 (ECC4) of the same compound?
Answer: > 8000 nM

Question: And the IC50 (NCI-H1694)?
Answer: > 8000 nM

From ChEMBL document CHEMBL1201861, “Genomics of Drug Sensitity in Cancer screening data, Wellcome Trust Sanger Institute”
